Experimental data reported in ChEMBL document CHEMBL4371083, “Synthesis, biological evaluation and 3D-QSAR studies of 1,2,4-triazole-5-substituted carboxylic acid bioisosteres as uric acid transporter 1 (URAT1) inhibitors for the treatment of hyperuricemia associated with gout” (Bioorg Med Chem Lett, 2019).

Each molecule was assayed against T1, Solute carrier family 22 member 12 (Homo sapiens, UniProt Q96S37) (assay: Inhibition of human URAT1 expressed in HEK293 cells assessed as reduction in [8-14C]uric acid uptake).
T1 sequence (Q96S37 whole entry): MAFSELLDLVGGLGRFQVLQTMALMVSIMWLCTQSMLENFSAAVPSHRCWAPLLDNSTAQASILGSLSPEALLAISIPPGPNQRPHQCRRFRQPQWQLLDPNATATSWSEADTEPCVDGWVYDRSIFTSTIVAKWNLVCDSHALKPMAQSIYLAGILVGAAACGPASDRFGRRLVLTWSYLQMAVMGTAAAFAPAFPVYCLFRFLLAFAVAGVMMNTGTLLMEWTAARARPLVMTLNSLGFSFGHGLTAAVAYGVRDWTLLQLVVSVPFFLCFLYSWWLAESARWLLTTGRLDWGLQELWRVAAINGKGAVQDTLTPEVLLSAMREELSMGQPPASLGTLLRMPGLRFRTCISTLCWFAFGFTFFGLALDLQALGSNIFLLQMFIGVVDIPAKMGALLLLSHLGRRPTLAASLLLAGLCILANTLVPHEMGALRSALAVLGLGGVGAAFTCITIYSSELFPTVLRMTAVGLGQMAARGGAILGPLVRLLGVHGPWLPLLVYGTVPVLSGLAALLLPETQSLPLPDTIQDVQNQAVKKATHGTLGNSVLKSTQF
Assay type: cell-based

| Compound | IC50 |
| --- | --- |
| O=S(=O)(CSc1nnc(Br)n1Cc1ccc(Br)c2ccccc12)Nc1ccc(C(F)(F)F)nc1 | 10.2 µM |
| O=S(=O)(CSc1nnc(Br)n1Cc1ccc(Br)c2ccccc12)Nc1ccc(Cl)nc1Cl | 1.66 µM |
| O=S(=O)(CSc1nnc(Br)n1Cc1ccc(Br)c2ccccc12)Nc1ccc(F)nc1 | 1.55 µM |
| NS(=O)(=O)CSc1nnc(Br)n1Cc1ccc(Br)c2ccccc12 | 365 µM |
| O=S(=O)(CSc1nnc(Br)n1Cc1ccc(Br)c2ccccc12)Nc1cccnc1Cl | 5.1 µM |
| O=C(CSc1nnc(Br)n1Cc1ccc(Br)c2ccccc12)NO | 0.64 µM |
| O=S(=O)(CSc1nnc(Br)n1Cc1ccc(Br)c2ccccc12)Nc1cncc(C(F)(F)F)c1 | 6.38 µM |
| O=S(=O)(CSc1nnc(Br)n1Cc1ccc(Br)c2ccccc12)Nc1cnccc1I | 10.6 µM |
| Brc1ccc(Cn2c(Br)nnc2SCc2nnn[nH]2)c2ccccc12 | 3.24 µM |
| O=S(=O)(O)CSc1nnc(Br)n1Cc1ccc(Br)c2ccccc12 | 14.4 µM |
| COc1ncccc1NS(=O)(=O)CSc1nnc(Br)n1Cc1ccc(Br)c2ccccc12 | 4.05 µM |
| Oc1c(Br)cc(CSc2nnc(Br)n2Cc2ccc(Br)c3ccccc23)cc1Br | 119 µM |

Continued, values first:

| IC50 | Compound |
| --- | --- |
| 0.28 µM | O=S(=O)(CSc1nnc(Br)n1Cc1ccc(Br)c2ccccc12)Nc1cccnc1Br |
| 5.41 µM | O=S(=O)(CSc1nnc(Br)n1Cc1ccc(Br)c2ccccc12)Nc1ccc(Br)nc1Br |
| 15.8 µM | O=S(=O)(CSc1nnc(Br)n1Cc1ccc(Br)c2ccccc12)Nc1ccccc1 |
| 0.032 µM | O=S(=O)(CSc1nnc(Br)n1Cc1ccc(Br)c2ccccc12)Nc1cccnc1 |
| 2.2 µM | O=S(=O)(CSc1nnc(Br)n1Cc1ccc(Br)c2ccccc12)Nc1ccc(Br)nc1 |
| 2.79 µM | O=S(=O)(CSc1nnc(Br)n1Cc1ccc(Br)c2ccccc12)Nc1cc(Cl)cnc1Cl |
| 1.94 µM | O=S(=O)(CSc1nnc(Br)n1Cc1ccc(Br)c2ccccc12)Nc1ccc(Cl)nc1 |
